Columns and labels:
Cholinesterase = Cholinesterase (Equus caballus, UniProt P81908)
Description: Inhibition of horse serum BChE by spectrophotometry based Ellman's method

[1] = Selectivity index, ratio of IC50 for horse serum BChE to IC50 for Torpedo californica AChE
Acetylcholinesterase [2] = biological target: T1, Acetylcholinesterase (Torpedo californica, UniProt P04058)
Description: Inhibition of Torpedo californica AChE by spectrophotometry based Ellman's method

[3] = Cytotoxicity against human SH-SY5Y cells assessed as LDH release at 5 uM after 1 hr (reference value: -0.78 +/- 3.50%); assay type: cell-based
[4] = Cytotoxicity against human SH-SY5Y cells assessed as LDH release at 1 uM after 1 hr (reference value: -0.78 +/- 3.50%); assay type: cell-based
[5] = Cytotoxicity against human SH-SY5Y cells assessed as LDH release at 1 uM after 24 hrs (reference value: 0.02 +/- 0.35%); assay type: cell-based
[6] = Cytotoxicity against human SH-SY5Y cells assessed as LDH release at 5 uM after 24 hrs (reference value: 0.02 +/- 0.35%); assay type: cell-based
Acetylcholinesterase [7] = biological target: T1, Acetylcholinesterase; experiment: Mixed type inhibition of Torpedo californica AChE by Lineweaver-Burk plot; design: species or system Tetronarce californica
[8] = biological target: Acetylcholinesterase (Homo sapiens) (UniProt P22303); experiment: Inhibition of AChE in human SH-SY5Y cells assessed as enzyme activity at 1 uM after 1 hr by Ellman's method; assay type: cell-based; design: scale not given: the % may be the effect or the level left
[9] = Cytotoxicity against human SH-SY5Y cells assessed as change in cell morphology at 1 to 5 uM after 1 hr to 24 hrs by phase contrast microscopy; assay type: cell-based
[10] = biological target: Acetylcholinesterase (Homo sapiens) (UniProt P22303); experiment: Inhibition of AChE in human SH-SY5Y cells assessed as enzyme activity at 5 uM after 1 hr by Ellman's method; assay type: cell-based; design: scale not given: the % may be the effect or the level left

T1 sequence (P04058 whole entry): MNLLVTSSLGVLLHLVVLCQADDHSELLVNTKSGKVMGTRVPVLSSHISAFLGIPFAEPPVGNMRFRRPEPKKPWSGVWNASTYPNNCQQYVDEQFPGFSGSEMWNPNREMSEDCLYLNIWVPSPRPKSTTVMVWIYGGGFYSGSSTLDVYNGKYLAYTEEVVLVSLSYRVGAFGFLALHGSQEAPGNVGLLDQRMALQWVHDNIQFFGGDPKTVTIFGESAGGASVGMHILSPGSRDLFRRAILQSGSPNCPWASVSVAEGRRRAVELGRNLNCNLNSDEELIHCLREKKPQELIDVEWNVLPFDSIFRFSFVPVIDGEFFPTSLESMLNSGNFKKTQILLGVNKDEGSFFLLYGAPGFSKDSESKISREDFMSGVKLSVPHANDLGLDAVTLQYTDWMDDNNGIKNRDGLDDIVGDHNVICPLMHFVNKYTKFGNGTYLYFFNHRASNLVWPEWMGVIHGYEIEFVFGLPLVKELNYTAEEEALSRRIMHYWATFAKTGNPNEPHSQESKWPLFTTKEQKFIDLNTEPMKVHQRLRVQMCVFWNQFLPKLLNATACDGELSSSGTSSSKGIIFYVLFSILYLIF
Chain of Cholinesterase (P81908 whole entry): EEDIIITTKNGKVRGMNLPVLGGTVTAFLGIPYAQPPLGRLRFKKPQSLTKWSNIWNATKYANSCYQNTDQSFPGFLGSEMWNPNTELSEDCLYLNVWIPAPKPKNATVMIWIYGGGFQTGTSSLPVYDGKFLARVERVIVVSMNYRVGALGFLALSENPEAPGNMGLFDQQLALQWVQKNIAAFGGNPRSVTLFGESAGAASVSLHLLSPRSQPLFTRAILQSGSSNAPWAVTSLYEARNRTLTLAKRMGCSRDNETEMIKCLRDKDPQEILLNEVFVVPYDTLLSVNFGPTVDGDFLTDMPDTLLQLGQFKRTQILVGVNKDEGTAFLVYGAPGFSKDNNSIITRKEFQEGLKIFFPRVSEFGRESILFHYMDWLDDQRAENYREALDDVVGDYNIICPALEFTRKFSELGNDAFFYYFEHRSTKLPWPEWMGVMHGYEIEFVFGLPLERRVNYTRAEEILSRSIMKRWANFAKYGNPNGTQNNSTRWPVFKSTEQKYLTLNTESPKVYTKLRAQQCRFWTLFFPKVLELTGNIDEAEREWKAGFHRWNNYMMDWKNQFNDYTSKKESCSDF
Chain of Acetylcholinesterase (Homo sapiens) (P22303 whole entry): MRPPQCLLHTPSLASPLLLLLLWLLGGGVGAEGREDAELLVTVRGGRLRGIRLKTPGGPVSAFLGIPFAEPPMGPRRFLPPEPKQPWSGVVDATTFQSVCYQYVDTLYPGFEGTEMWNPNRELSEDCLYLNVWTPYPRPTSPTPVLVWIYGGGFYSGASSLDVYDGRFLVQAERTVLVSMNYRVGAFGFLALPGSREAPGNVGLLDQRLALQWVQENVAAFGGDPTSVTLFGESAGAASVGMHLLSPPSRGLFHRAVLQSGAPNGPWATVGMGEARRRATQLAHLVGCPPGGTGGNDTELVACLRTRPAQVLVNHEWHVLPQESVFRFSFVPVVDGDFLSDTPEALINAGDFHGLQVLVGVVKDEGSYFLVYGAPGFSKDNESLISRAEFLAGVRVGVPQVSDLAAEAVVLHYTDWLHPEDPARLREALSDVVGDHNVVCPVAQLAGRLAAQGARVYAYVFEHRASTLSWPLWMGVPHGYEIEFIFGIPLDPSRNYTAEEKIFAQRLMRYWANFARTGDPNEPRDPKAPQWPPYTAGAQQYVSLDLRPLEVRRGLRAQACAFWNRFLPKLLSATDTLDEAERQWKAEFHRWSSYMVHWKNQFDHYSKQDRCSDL

| SMILES | IC50 (Cholinesterase) [µM] | Ratio IC50 [1] | IC50 (Acetylcholinesterase [2]) [µM] | also measured |
| --- | --- | --- | --- | --- |
| C[C@@H](CC[C@H]1C(CO)=CC[C@H]2C(C)(C)CCC[C@]12C)CC(=O)OCCCCCCN1CCCC1 | 10.6 | 0.8 | 13.5 |  |
| C[C@@H](CC[C@H]1C(CO)=CC[C@H]2C(C)(C)CCC[C@]12C)CC(=O)OCCCCCN1CCCC1 | 22.1 | 4.1 | 5.5 |  |
| C[C@@H](CC[C@H]1C(CO)=CC[C@H]2C(C)(C)CCC[C@]12C)CC(=O)OCCCN1CCOCC1 | > 50 |  | > 50 |  |
| C[C@@H](CC[C@H]1C(CO)=CC[C@H]2C(C)(C)CCC[C@]12C)CC(=O)OCCN1CCOCC1 | > 50 |  | > 50 |  |
| CCN(CC)CCCCCCOC(=O)C[C@@H](C)CC[C@H]1C(CO)=CC[C@H]2C(C)(C)CCC[C@]12C | 15.2 | 0.9 | 17.8 |  |
| C[C@@H](CC[C@H]1C(CO)=CC[C@H]2C(C)(C)CCC[C@]12C)CC(=O)OCCN1CCCCC1 | > 50 |  | > 50 |  |
| CCN(CC)CCCOC(=O)C[C@@H](C)CC[C@H]1C(CO)=CC[C@H]2C(C)(C)CCC[C@]12C | 18.1 | 1.5 | 11.8 |  |
| C[C@@H](CC[C@H]1C(CO)=CC[C@H]2C(C)(C)CCC[C@]12C)CC(=O)OCCCCCN1CCCCC1 | 24.8 | 1.7 | 14.7 |  |
| C[C@@H](CC[C@H]1C(CO)=CC[C@H]2C(C)(C)CCC[C@]12C)CC(=O)OCCCCCN1CCOCC1 | > 50 |  | > 50 |  |
| C[C@@H](CC[C@H]1C(CO)=CC[C@H]2C(C)(C)CCC[C@]12C)CC(=O)OCCCN1CCCCC1 | 34.7 | 5.6 | 6.2 |  |
| CCN(CC)CCCCCOC(=O)C[C@@H](C)CC[C@H]1C(CO)=CC[C@H]2C(C)(C)CCC[C@]12C | 27.2 | 2 | 13.8 |  |
| C[C@@H](CC[C@H]1C(CO)=CC[C@H]2C(C)(C)CCC[C@]12C)CC(=O)OCCN1CCCC1 | 17 | < 0.3 | > 50 |  |
| C[C@@H](CC[C@H]1C(CO)=CC[C@H]2C(C)(C)CCC[C@]12C)CC(=O)OCCCN1CCCC1 | 43.8 | 1.3 | 33.8 |  |
| C[C@@H](CC[C@H]1C(CO)=CC[C@H]2C(C)(C)CCC[C@]12C)CC(=O)OCCCCCCN1CCCCC1 | 10.5 | 0.7 | 14.5 |  |
| C[C@@H](CC[C@H]1C(CO)=CC[C@H]2C(C)(C)CCC[C@]12C)CC(=O)OCCCCN1CCCCC1 | 37.1 | 2.5 | 15 |  |
| CCN(CC)CCCCOC(=O)C[C@@H](C)CC[C@H]1C(CO)=CC[C@H]2C(C)(C)CCC[C@]12C | 23.6 | 1.8 | 9.4 |  |
| C[C@@H](CC[C@H]1C(CO)=CC[C@H]2C(C)(C)CCC[C@]12C)CC(=O)OCCCCN1CCOCC1 | > 50 |  | > 50 |  |
| C[C@@H](CC[C@H]1C(CO)=CC[C@H]2C(C)(C)CCC[C@]12C)CC(=O)O | 171 | 8.1 | 21.1 |  |
| C[C@@H](CC[C@H]1C(CO)=CC[C@H]2C(C)(C)CCC[C@]12C)CC(=O)OCCCCCCN1CCOCC1 | > 50 |  | > 50 |  |
| C[C@@H](CC[C@H]1C(CO)=CC[C@H]2C(C)(C)CCC[C@]12C)CC(=O)OCCCCN1CCCC1 | 10.3 | 3.2 | 3.2 | Activity [3]: 2.33%; Activity [4]: 1.34%; Activity [5]: -0.02%; Activity [6]: 0.11%; Ki (Acetylcholinesterase [7]): 4.6 µM; Activity [8]: 67.3%; Activity [9]: Non-toxic; Activity [10]: 30.4% |
| CCN(CC)CCOC(=O)C[C@@H](C)CC[C@H]1C(CO)=CC[C@H]2C(C)(C)CCC[C@]12C | 39.9 | < 0.8 | > 50 |  |

— ChEMBL document CHEMBL3351573, “Synthesis and cholinesterase inhibition of cativic acid derivatives” (Bioorg Med Chem, 2014)
